From patent US20250115620A1, “BRIDGED TRICYCLIC CARBAMOYLPYRIDONE COMPOUNDS AND USES THEREOF” (Gilead Sciences, Inc., priority 2022, published 2025)
Like-named read-outs stand apart in the source and are kept apart here.

Columns and labels:
[1] = in vitro; conditions: human, uninfected MT-4 cells
[2] = tested on: HIV-1 (IIIB); test: microbe, parasite or virus in culture; assay type: cell-based; conditions: Human immunodeficiency virus 1, IIIB, MT4, 120 h, read-out: MT4 EC50
Method: Compounds were tested in a high-throughput 384-well assay format for their ability to inhibit the replication of HIV-1 (IIIB) in MT-4 cells. Compounds were serially diluted (1:3) in DMSO on 384-well polypropylene plates and further diluted 200-fold into complete RPMI media (10% FBS, 1% P/S) using the Biotek Micro Flow and Labcyte ECHO acoustic dispenser. Each plate contained up to 8 test compounds, with negative (No Drug Control) and 5 μM AZT positive controls. MT-4 cells were pre-infected with 10 μL of either RPMI (mock-infected) or a fresh 1:250 dilution of HIV-1 IIIB concentrated virus stock. Infected and uninfected MT-4 cells were further diluted in complete RPMI media and added to each plate using a Micro Flow dispenser. After 5 days incubation in a humidified and temperature controlled incubator (37° C.), Cell Titer Glo (Promega) was added to the assay plates and chemiluminescence read using an Envision plate-reader.

[3] = tested on: pLAI reporter virus; test: microbe, parasite or virus in culture; assay type: cell-based, HIV; conditions: Human immunodeficiency virus 1, MT4, 72 h
[4] = HIV-1 (IIIB) in MT-4 cells, 5 days incubation, Cell Titer Glo

Compound | CC50 at 5 days [1] | EC50 [2, 4] | EC50 ([3]; read-out: RLUC 50% HS EC50) | EC50 ([3]; read-out: RLUC CCM EC50) | EC50 [2]
C[C@H]1CC[C@]2(COCO2)[C@H]2CN1C(=O)c1c(O)c(=O)c(C(=O)NCc3c(F)cc(F)cc3F)cn12 [Example 130, (3′S,4R,7′R)-12′-hydroxy-3′-methyl-1′,11′-dioxo-N-(2,4,6-trifluorobenzyl)-1′,4′,5′,11′-tetrahydro-3′H,7′H-spiro[[1,3]dioxolane-4,6′-[2,7]methanopyrido[1,2-a][1,4]diazonine]-10′-carboxamide] | 9840 nM | 0.9 nM | 363 nM | 0.2 nM | 
C[C@H]1CC[C@@]2(COCO2)[C@H]2CN1C(=O)c1c(O)c(=O)c(C(=O)NCc3c(F)cc(F)cc3F)cn12 [Example 131, (3′S,4S,7′R)-12′-hydroxy-3′-methyl-1′,11′-dioxo-N-(2,4,6-trifluorobenzyl)-1′,4′,5′,11′-tetrahydro-3′H,7′H-spiro[[1,3]dioxolane-4,6′-[2,7]methanopyrido[1,2-a][1,4]diazonine]-10′-carboxamide] | 28900 nM | 1.9 nM | 8.1 nM | 0.5 nM | 
C[C@@H]1OC[C@]2(CC[C@H](C)N3C[C@H]2n2cc(C(=O)NCc4c(F)cc(F)cc4F)c(=O)c(O)c2C3=O)O1 [Example 133, (2R,3′S,4R,7′R)-12′-hydroxy-2,3′-dimethyl-1′,11′-dioxo-N-(2,4,6-trifluorobenzyl)-1′,4′,5′,11′-tetrahydro-3′H,7′H-spiro[[1,3]dioxolane-4,6′-[2,7]methanopyrido[1,2-a][1,4]diazonine]-10′-carboxamide] | 20200 nM | 1.7 nM | 102 nM | 0.5 nM | 
C[C@H]1CC[C@]2(CO[C@H](Cc3ccccc3)O2)[C@H]2CN1C(=O)c1c(O)c(=O)c(C(=O)NCc3c(F)cc(F)cc3F)cn12 [Example 134, (2S,3′S,4R,7′R)-2-benzyl-12′-hydroxy-3′-methyl-1′,11′-dioxo-N-(2,4,6-trifluorobenzyl)-1′,4′,5′,11′-tetrahydro-3′H,7′H-spiro[[1,3]dioxolane-4,6′-[2,7]methanopyrido[1,2-a][1,4]diazonine]-10′-carboxamide] | 8500 nM |  | 6.3 nM | 1.9 nM | 4.8 nM
C[C@H]1CC[C@]2(COC(Cc3ccccc3)O2)[C@H]2CN1C(=O)c1c(O)c(=O)c(C(=O)NCc3c(F)cc(F)cc3F)cn12 (stereo partly drawn) [Example 135, (2R,3′S,4R,7′R)-2-benzyl-12′-hydroxy-3′-methyl-1′,11′-dioxo-N-(2,4,6-trifuorobenzyl)-1′,4′,5′,11′-tetrahydro-3′H, 7′H-spiro(f[,3]dioxolane-4,6′-[2,7]methanopyrido[1,2-a][1,4]diazonine]-10′-carboxamide] | 6880 nM | 7.1 nM | 581 nM | 2.6 nM | 
C[C@H]1CC[C@@]2(COC(Cc3ccccc3)O2)[C@H]2CN1C(=O)c1c(O)c(=O)c(C(=O)NCc3c(F)cc(F)cc3F)cn12 (stereo partly drawn) [Example 136, (3′S,4S,7′R)-2-benzyl-12′-hydroxy-3′-methyl-1′,11′-dioxo-N-(2,4,6-trifluorobenzyl)-1′,4′,5′,11′-tetrahydro-3′H,7′H-spiro[[1,3]dioxolane-4,6′-[2,7]methanopyrido[1,2-a][1,4]diazonine]-10′-carboxamide] | 16600 nM |  | 8.7 nM | 1.7 nM | 5.8 nM
C[C@H]1CC[C@]2(COC(C)(C)O2)[C@H]2CN1C(=O)c1c(O)c(=O)c(C(=O)NCc3c(F)cc(F)cc3F)cn12 [Example 137, (3′S,4R,7′R)-12′-hydroxy-2,2,3′-trimethyl-1′,11′-dioxo-N-(2,4,6-trifluorobenzyl)-1′,4′,5′,11′-tetrahydro-3′H,7′H-spiro[[1,3]dioxolane-4,6′-[2,7]methanopyrido[1,2-a][1,4]diazonine]-10′-carboxamide] | 42400 nM | 1.5 nM | 13.3 nM | 0.3 nM | 
C[C@H]1CC[C@@]2(COC(C)(C)O2)[C@H]2CN1C(=O)c1c(O)c(=O)c(C(=O)NCc3c(F)cc(F)cc3F)cn12 [Example 138, (3′S,4S,7′R)-12′-hydroxy-2,2,3′-trimethyl-1′,11′-dioxo-N-(2,4,6-trifluorobenzyl)-1′,4′,5′,11′-tetrahydro-3′H,7′H-spiro[[1,3]dioxolane-4,6′-[2,7]methanopyrido[1,2-a][1,4]diazonine]-10′-carboxamide] | 23200 nM | 2 nM | 13.1 nM | 0.5 nM | 
C[C@H]1CC[C@]2(COCCO2)[C@H]2CN1C(=O)c1c(O)c(=O)c(C(=O)NCc3c(F)cc(F)cc3F)cn12 [Example 139, (2R,3′S,7′R)-12′-hydroxy-3′-methyl-1′,11′-dioxo-N-(2,4,6-trifluorobenzyl)-1′,4′,5′,11′-tetrahydro-3′H,7′H-spiro[[1,4]dioxane-2,6′-[2,7]methanopyrido[1,2-a][1,4]diazonine]-10′-carboxamide] | 30900 nM | 1.4 nM | 83.7 nM | 0.1 nM | 
C[C@H]1CC[C@@]2(COCCO2)[C@H]2CN1C(=O)c1c(O)c(=O)c(C(=O)NCc3c(F)cc(F)cc3F)cn12 [Example 140, (2S,3′S,7′R)-12′-hydroxy-3′-methyl-1′,11′-dioxo-N-(2,4,6-trifluorobenzyl)-1′,4′,5′,11′-tetrahydro-3′H,7′H-spiro[[1,4]dioxane-2,6′-[2,7]methanopyrido[1,2-a][1,4]diazonine]-10′-carboxamide] | 22800 nM | 1.8 nM | 1.7 nM | 0.1 nM | 
C[C@H]1CC[C@]2(COC(F)(F)O2)[C@H]2CN1C(=O)c1c(O)c(=O)c(C(=O)NCc3c(F)cc(F)cc3F)cn12 [Example 141, (3′S,4R,7′R)-2,2-difluoro-12′-hydroxy-3′-methyl-1′,11′-dioxo-N-(2,4,6-trifluorobenzyl)-1′,4′,5′,11′-tetrahydro-3′H,7′H-spiro[[1,3]dioxolane-4,6′-[2,7]methanopyrido[1,2-a][1,4]diazonine]-10′-carboxamide] | 30400 nM | 0.9 nM | 263 nM | 0.2 nM | 
C[C@H]1CCC2(N=c3ccccc3=N2)[C@H]2CN1C(=O)c1c(O)c(=O)c(C(=O)NCc3c(F)cc(F)cc3F)cn12 [Example 142, (3′S,7′R)-12′-hydroxy-3′-methyl-1′,11′-dioxo-N-(2,4,6-trifluorobenzyl)-1′,4′,5′,11′-tetrahydro-3′H,7′H-spiro[benzo[d]imidazole-2,6′-[2,7]methanopyrido[1,2-a][1,4]diazonine]-10′-carboxamide] | ≥ 50000 nM |  | 0.7 nM | 0.5 nM | 3.9 nM
C[C@H]1CC[C@]2(Cc3ccccc3O2)[C@H]2CN1C(=O)c1c(O)c(=O)c(C(=O)NCc3c(F)cc(F)cc3F)cn12 [Example 143, (2S,3′S,7′R)-12′-hydroxy-3′-methyl-1′,11′-dioxo-N-(2,4,6-trifluorobenzyl)-1′,4′,5′,11′-tetrahydro-3H,3′H,7′H-spiro[benzofuran-2,6′-[2,7]methanopyrido[1,2-a][1,4]diazonine]-10′-carboxamide] | 24400 nM | 1.4 nM | 78.4 nM | 0.1 nM | 
